# In patent US12290551B2, “Methods for imaging and treatment of somatostatin-receptor positive tumors” (Corcept Therapeutics Incorporated, priority 2018, dated 2025):
# Tests used:
# Assay type in all cases: in vivo, human
# [1] = test system: Cushing's syndrome patients; assay: Drug-induced hypokalemia in Phase 2 study of relacorilant
# [2] = test system: ectopic tumor (somatostatin receptor expression); assay: Indium octreoscan imaging of ectopic tumor before and after relacorilant treatment; settings: one patient; oral once daily 250, 300, 350, 400 mg/day, four weeks each; 111Indium octreotide
# Description: In a further attempt to image, and to localize, the tumor in the patient, an indium octreoscan image (patient was administered Octreotide radiolabeled with ^111Indium prior to imaging) was obtained, in which a dot was seen which enabled localization of the tumor to the right lung/mediastinum region of the patient.
# Relacorilant was then orally administered to the patient once per day for four months. The patient was administered 250 milligrams (mg) per day of relacorilant for four weeks, followed by 300 mg/day relacorilant for the next four weeks, followed by 350 mg/day relacorilant for a further four weeks, and then was administered 400 mg relacorilant for another four weeks.
# The indium octreoscan image of FIG. 2 provides a much improved and enhanced image of the tumor in the patient as compared to the image of FIG. 1. It is believed that the improvement in the indium octreoscan image of FIG. 2 as compared to the image shown in FIG. 1 was due to increased somatostatin receptor expression, e.g., due to increased sst2 receptor expression, as compared to that expression prior to the relacorilant treatment.
# [3] = test system: Cushing's syndrome patients; assay: Mean ACTH levels in relacorilant Groups 1 and 2
# From the text: Cortisol levels obtained for individual patients and the UFC tabular summary (Tables 1 and 2 above) show no significant changes from baseline in UFC.
# [4] = test system: Cushing's syndrome patients; assay: 24-hr Urinary Free Cortisol, Group 2, 16 week ascending-dose relacorilant study
# From the text: (§1) Cortisol levels can be measured in a biological sample, such as saliva, urine, whole blood, serum, plasma, or any other biological fluid taken from a patient suffering from Cushing's syndrome. Such samples are typically analyzed in vitro. In some cases, the same sample is used to measure cortisol level and ACTH level. In other cases, different samples are used to measure cortisol and ACTH levels. For example, cortisol levels can be measured in saliva or urine, and ACTH levels can be measured in plasma. In yet other cases, different samples of the same type are used to measure the levels. Methods for measuring cortisol levels are known to those in the art. Useful assays include immunoassays, e.g., competitive immunoassay, radioimmunoassay, immunofluorometric enzyme assay, and ELISA, competitive protein-binding assay and mass spectrometry, e.g., high-performance liquid chromatography/triple quadrupole-mass spectrometry (LC-MS/MS). Commercial kits for measuring cortisol in sample are available from, e.g., Beckman-Coulter, Seimens, Roche Diagnostics, and the like. Non-limiting examples of an immunoassay include an ADVIA Centaur® Cortisol assay (Siemens Healthcare Global), […] i2000SR cortisol (Abbott), Immulite® 2000 Cortisol assay (Siemans Healthcare Global; #L2KCO2), Vitros® ECi Cortisol assay (Ortho Clinical Diagnostics; #107 4053), and Elecsys® Cortisol Immunoassay (Roche Molecular Diagnostics; #11875116160).
# Cortisol levels were measured in a second group of Cushing's syndrome patients who were administered doses of relacorilant. Urinary Free Cortisol (UFC) was measured in these patients over the course of a 16 week study in which ascending doses of relacorilant were administered.
# [5] = test system: Cushing's syndrome patients; assay: 24-hr Urinary Free Cortisol, Group 1, 12 week ascending-dose relacorilant study; settings: for change in cortisol levels: Cushing's syndrome patients, Groups 1 and 2 (Tables 1 and 2); for Mean 24-hr UFC: Group 1, baseline 215.6
# From the text: as §1
# Cortisol levels were measured in Cushing's syndrome patients who were administered doses of the heteroaryl-ketone fused azadecalin compound relacorilant. Urinary Free Cortisol (UFC) was measured in these patients over the course of a 12 week study in which ascending doses of relacorilant were administered.
smiles,measurement,setting,value
"Cn1cc(S(=O)(=O)N2CCC3=Cc4c(cnn4-c4ccc(F)cc4)C[C@]3(C(=O)c3cc(C(F)(F)F)ccn3)C2)cn1 [relacorilant, (R)-(1-(4-fluorophenyl)-6-((1-methyl-1H-pyrazol-4-yl)sulfonyl)-4,4a,5,6,7,8-hexahydro-1H-pyrazolo[3,4-g]isoquinolin-4a-yl)(4-(trifluoromethyl)pyridin-2-yl)methanone]",drug-induced hypokalemia,[1],lack of drug-induced hypokalemia
same,effect on indium octreoscan images of the ectopic tumor,[2],enhanced
same,mean ACTH,"[3]; Group 1, Week 12, SD 10.34, Baseline 11.02±8.04",14.68 pmol/L
same,mean ACTH,"[3]; Group 2, Week 16 or last-observed, SD 10.72, Baseline 12.79±8.36",15.56 pmol/L
same,change in ACTH,[3]; baseline to end of treatment,only modest increases in ACTH
same,Mean 24-hr UFC,"[4]; relacorilant 250 mg, Wk 2, baseline 228.1",252.1 µg/day
same,Mean 24-hr UFC,"[4]; relacorilant 250 mg, Wk 4, baseline 228.1",218.2 µg/day
same,Mean 24-hr UFC,"[4]; relacorilant 300 mg, Wk 6, baseline 228.1",257.4 µg/day
same,Mean 24-hr UFC,"[4]; relacorilant 300 mg, Wk 8, baseline 228.1",149.1 µg/day
same,Mean 24-hr UFC,"[4]; relacorilant 350 mg, Wk 10, baseline 228.1",185.4 µg/day
same,Mean 24-hr UFC,"[4]; relacorilant 350 mg, Wk 12, baseline 228.1",249.0 µg/day
same,Mean 24-hr UFC,"[4]; relacorilant 400 mg, Wk 14, baseline 228.1",194.1 µg/day
same,Mean 24-hr UFC,"[4]; relacorilant 400 mg, Wk 16, baseline 228.1",203.1 µg/day
same,change in cortisol levels,[5],does not lead to significant increases in cortisol levels
same,change in cortisol levels,[5]; listed as Relacorilant,no increases in cortisol concentrations
same,Mean 24-hr UFC,"[5]; relacorilant 100 mg, Wk 2",151.8 µg/day
same,Mean 24-hr UFC,"[5]; relacorilant 100 mg, Wk 4",157.0 µg/day
same,Mean 24-hr UFC,"[5]; relacorilant 150 mg, Wk 6",145.3 µg/day
same,Mean 24-hr UFC,"[5]; relacorilant 150 mg, Wk 8",134.9 µg/day
same,Mean 24-hr UFC,"[5]; relacorilant 200 mg, Wk 10",180.9 µg/day
same,Mean 24-hr UFC,"[5]; relacorilant 200 mg, Wk 12",211.6 µg/day
